ChEMBL document CHEMBL1159147, “4-(2-PYRTOYL)-5-phenylthiazoles as novel non-bicyclic reversible inhibitors of the gastric H+/K+-atpase” (Bioorg Med Chem Lett, 1995)

Assays:
[1] = system: CCCc1nc(-c2cc(N)ccn2)c(-c2ccccc2C)s1; experiment: Vmax was determined
[2] = system: CCCc1nc(-c2cc(N)ccn2)c(-c2ccccc2C)s1; experiment: Km was determined
[3] = system: Rattus norvegicus; experiment: Compound was tested in vivo for its ability to inhibit pentagastrin-stimulated gastric acid secretion in the anesthetized lumen perfused rat at 10 umol/kg iv; insoluble; assay type: functional, organism-based; conditions: Stomach
[4] = target: Potassium-transporting ATPase alpha chain 1 (Sus scrofa) (UniProt P19156); experiment: Ability to inhibit H+/K+ stimulated ATPase activity in lympholised gastric vesicles at 100 uM concentration; assay type: tissue-based; conditions: Stomach
Chain of Potassium-transporting ATPase alpha chain 1 (Sus scrofa) (P19156 whole entry): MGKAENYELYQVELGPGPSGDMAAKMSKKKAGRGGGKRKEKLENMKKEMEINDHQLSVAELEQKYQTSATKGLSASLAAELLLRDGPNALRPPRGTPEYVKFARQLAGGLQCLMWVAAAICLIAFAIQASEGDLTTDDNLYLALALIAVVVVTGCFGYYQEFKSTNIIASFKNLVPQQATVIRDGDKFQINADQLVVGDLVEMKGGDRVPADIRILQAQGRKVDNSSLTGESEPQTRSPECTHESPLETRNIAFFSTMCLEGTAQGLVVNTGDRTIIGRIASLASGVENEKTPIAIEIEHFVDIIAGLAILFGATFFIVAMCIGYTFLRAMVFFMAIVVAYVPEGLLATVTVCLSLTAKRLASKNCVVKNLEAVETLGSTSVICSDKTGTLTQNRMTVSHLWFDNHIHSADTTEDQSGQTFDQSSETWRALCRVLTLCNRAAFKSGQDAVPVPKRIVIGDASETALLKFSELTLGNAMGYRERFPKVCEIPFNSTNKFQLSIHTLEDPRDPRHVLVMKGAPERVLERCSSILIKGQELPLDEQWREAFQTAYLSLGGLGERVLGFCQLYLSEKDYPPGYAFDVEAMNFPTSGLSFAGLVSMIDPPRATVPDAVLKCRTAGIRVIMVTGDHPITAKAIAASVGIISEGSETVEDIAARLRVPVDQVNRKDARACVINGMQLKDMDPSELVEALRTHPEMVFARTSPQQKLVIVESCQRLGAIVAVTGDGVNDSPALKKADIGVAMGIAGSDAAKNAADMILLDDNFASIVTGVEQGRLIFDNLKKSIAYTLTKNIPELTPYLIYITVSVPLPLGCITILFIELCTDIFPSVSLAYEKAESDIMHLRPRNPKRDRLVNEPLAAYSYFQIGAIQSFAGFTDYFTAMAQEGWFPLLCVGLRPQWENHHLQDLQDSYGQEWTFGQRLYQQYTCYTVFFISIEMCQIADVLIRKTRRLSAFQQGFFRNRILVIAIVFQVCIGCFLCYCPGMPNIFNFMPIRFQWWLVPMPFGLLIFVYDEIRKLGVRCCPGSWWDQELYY

[5] = target: Potassium-transporting ATPase alpha chain 1 (Sus scrofa) (UniProt P19156); experiment: Ability to inhibit H+/K+ stimulated ATPase activity in lympholised gastric vesicles at 30 uM concentration; assay type: tissue-based; conditions: Stomach

Chain of Potassium-transporting ATPase alpha chain 1 (Sus scrofa), P19156 (P19156 whole entry): as above

Q: With “Potassium-transporting ATPase alpha chain 1 (Sus scrofa), P19156” as the molecule, how does the Vmax [1] read?
A: Its Vmax is 0.636 IU mg-1.

Q: What about the Km [2] of the same molecule?
A: Its Km is 560 µM.

Q: For `Cc1ccccc1-c1nc(-c2ccccn2)c(-c2ccccc2C)s1`, which inhibition [3] is on record?
A: Its inhibition is “Insoluble”.

Q: With `CCCc1nc(-c2ccccc2C)c(-c2ccccn2)[nH]1` as the molecule, how does the inhibition [4] read?
A: Its inhibition is 67%.

Q: Which inhibition [4] does the source give for `Cc1nc(-c2ccccn2)c(-c2ccccc2C)s1` here?
A: The inhibition was 48%.

Q: `CCCc1ncc(-c2ccccc2C)c(-c2ccccn2)n1` was tested. Which inhibition [5] did it give?
A: Its inhibition is 23%.
